pA2 value data for one compound are collected here from patent US6417194B1, “Quinolines and quinazolines useful in therapy” (Pfizer, Inc., priority 1997, dated 2002).

For the experiment, the system named is human prostate. Briefly: Contractile responses of human prostate. The settings on record: antagonist affinity estimate against (−)-noradrenaline contractions of prostatic tissue strips; single antagonist concentration, incubated 2 hours. On the procedure: Contractile Responses of Human Prostate
Prostatic tissue was cut into longitudinal strips (approximately 3×2×10 mm) and suspended in organ baths under a resting tension of 1 g in Krebs Ringer bicarbonate of the following composition (mM): NaCl (119), KCl (4.7), CaCl2 (2.5), KH2PO4 (1.2), MgSO4 (1.2), NaHCO3 (25), glucose (11), and gassed with 95% O2/5% CO2.
The solution also contained […]. Tissues were exposed to a sensitising dose of (−)-noradrenaline ([…]) and washed over a 45 minute period. Isometric contractions were obtained in response to cumulative additions of (−)-noradrenaline to obtain control curves in all tissues. A further curve was then generated in the presence or absence of antagonist (incubated for 2 hours). Antagonist affinity estimates (pA2) were determined using a single concentration of competing antagonist, […] where the dose ratio (DR), relative to corresponding controls, was produced by a single concentration of antagonist [A], assuming competitive antagonism and Schild regression close to unity.

As to `COc1cc2nc(N3CCCN(C(=O)N4CCOCC4)CC3)nc(N)c2cc1OCC1CCC1` [Example 3, 4-Amino-6-cyclobutylmethyloxy-7-methoxy-2-[4-(4-morpholinecarbonyl)-1,4-diazepan-1-yl]quinazoline], the pA2 value was 9.2.
